According to patent US20120225862A1, “HETEROARYL BENZAMIDES, COMPOSITIONS AND METHODS OF USE” (AUCKLAND UNIVSERVICES LIMITED, priority 2009, published 2012):

Experiments:
RCC4 = assay: XTT IC50 / viability assay, RCC4 cells; assay type: cell-based, human
Outline: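 RCC4 parental and VHL-reintroduced RCC4/VHL cells (DMEM, 10% FCS) treated with serially diluted drug for four days. Viability by XTT (0.3 mg/mL) with N-methyl dibenzopyrazine methyl sulfate, 1–2 h at 37 °C, absorbance 450 nm; IC50 by linear interpolation.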

RCC4/VHL = assay: Necrotic cell death by trypan blue, RCC4/VHL; assay type: cell-based, human; conditions: 3 days, 5 μM, FIG. 2F
Procedure: For 2,3-bis[2-methoxy-4-nitro-5-sulfophenyl]-2H-tetrazolium-5-carboxanilide (XTT) assays, five thousand cells were plated in 96-well plates. The next day, vehicle (DMSO) or drug was added by serial dilution. Four days later, media were aspirated, XTT solution (0.3 mg/ml of XTT (Sigma), 2.65 mg/ml N-methyl dibenxopyrazine methyl sulfate (Simga) in phenol red-free media) was added, and the plates were incubated at 37° C. for 1-2 hours. Metabolism of XTT was quantified by measuring the absorbance at 450 nm. IC50s were calculated using linear interpolation. For clonogenic survival assays, three hundred cells were plated per 60 mm tissue culture dish. The cells were allowed to attach overnight and then treated with vehicle or drug for 14 days. Colonies were fixed and stained with crystal violet (0.1% crystal violet in 95% ethanol). All conditions were measured in triplicate and each experiment was done in duplicate or triplicate. To determine necrosis, cells were treated with drug for a given time point. Media and cells were collected, centrifugated, and resuspended in 0.4% trypan blue (Invitrogen). Live and dead cells were counted on a hematocytometer.

hexokinase = assay: Hexokinase activity in whole cell lysates, RCC4/VHL; assay type: cell-based, human; conditions: 5 μM
Procedure: (§1) All cells were grown in DMEM+10% FCS. ACHN and ACHN shVHL were a kind gift from George V. Thomas (UCLA). HIF overexpressing clones were described previously. Transfection of RNA oligos were performed with DnarmaFECT Reagent 1 (Dharmcon), according to manufacturer's directions. ON-TARGETplus SMART pools against HIF-1β/ARNT were purchased from Dharmacon. Glut1 was detected with anti-GLUT1 antibody from NeoMarkers/LabVision/Fisher. Pyruvate/lactate levels and hexokinase activity were both measured by fluorometric assay (BioVision and Sigma-Aldrich, respectively). ATP levels were measured by bioluminescence assay (ATP Determination Kit from Molecular Probes/Invitrogen). In vitro kinase activities were performed by Millipore KinaseProfiler. Affi-Gel 10 (BioRad) activated affinity media was coupled to analogs to generate immobilized affinity linkers.
We then examined whether this decrease in glycolysis in response to compound 47 was due to a decrease in glucose uptake or whether compound 47 inhibited a particular glycolytic enzyme. To test this, we measured glucose uptake using 2-deoxy-D-[^3H] glucose, a non-hydrolyzable, radioactive glucose analog, following two days of treatment with compound 47. […] RCC4/VHL cells had lower baseline levels of glucose uptake compared to RCC4 cells and were unaffected by treatment with compound 47. […]

Axl = biological target: T1, Axl (Homo sapiens, UniProt P30530); assay: In vitro kinase activity (Millipore KinaseProfiler): Axl; assay type: biochemical; conditions: no head or unit printed
T1 construct: purchased Millipore (KinaseProfiler service)
Procedure: as §1
(§2) We next wanted to investigate the differential glucose uptake between RCCs with and without VHL treated with compound 47 that subsequently lead to the selective death of VHL-deficient cells. We first examined the message levels of the two main glucose transporters, GLUT1 and GLUT2 by quantitative real-time PCR. GLUT1 is an inducible, high-affinity glucose transporter, while GLUT2 is the glucose transporter responsible for basal glucose uptake. […] Cells deficient in VHL had very low levels of GLUT2 that could barely be detected (FIG. 3J). […]

CaMKI = biological target: T2, CaMKI (Homo sapiens, UniProt Q14012); assay: In vitro kinase activity (Millipore KinaseProfiler): CaMKI; assay type: biochemical; conditions: no head or unit printed
T2 construct: purchased Millipore (KinaseProfiler service)
Procedure: as §1, §2

CK1γ1 = biological target: T3, CK1γ1 (Homo sapiens, UniProt Q9HCP0); assay: In vitro kinase activity (Millipore KinaseProfiler): CK1γ1; assay type: biochemical; conditions: no head or unit printed
T3 construct: purchased Millipore (KinaseProfiler service)
Procedure: as §1, §2

c-RAF = biological target: T4, c-RAF (Homo sapiens, UniProt P04049); assay: In vitro kinase activity (Millipore KinaseProfiler): c-RAF; assay type: biochemical; conditions: no head or unit printed
T4 construct: purchased Millipore (KinaseProfiler service)
Procedure: as §1, §2

Met = biological target: T5, Met (Homo sapiens, UniProt P08581); assay: In vitro kinase activity (Millipore KinaseProfiler): Met; assay type: biochemical; conditions: no head or unit printed
T5 construct: purchased Millipore (KinaseProfiler service)
Procedure: as §1, §2

MKK4 = biological target: T6, MKK4 (Mus musculus, UniProt P47809); assay: In vitro kinase activity (Millipore KinaseProfiler): MKK4; assay type: biochemical; conditions: no head or unit printed
T6 construct: purchased Millipore (KinaseProfiler service)
Procedure: as §1, §2

PDK1 = biological target: T7, PDK1 (Homo sapiens, UniProt O15530); assay: In vitro kinase activity (Millipore KinaseProfiler): PDK1; assay type: biochemical; conditions: no head or unit printed
T7 construct: purchased Millipore (KinaseProfiler service)
Procedure: as §1, §2

T1 sequence (P30530 26-894, species assumed): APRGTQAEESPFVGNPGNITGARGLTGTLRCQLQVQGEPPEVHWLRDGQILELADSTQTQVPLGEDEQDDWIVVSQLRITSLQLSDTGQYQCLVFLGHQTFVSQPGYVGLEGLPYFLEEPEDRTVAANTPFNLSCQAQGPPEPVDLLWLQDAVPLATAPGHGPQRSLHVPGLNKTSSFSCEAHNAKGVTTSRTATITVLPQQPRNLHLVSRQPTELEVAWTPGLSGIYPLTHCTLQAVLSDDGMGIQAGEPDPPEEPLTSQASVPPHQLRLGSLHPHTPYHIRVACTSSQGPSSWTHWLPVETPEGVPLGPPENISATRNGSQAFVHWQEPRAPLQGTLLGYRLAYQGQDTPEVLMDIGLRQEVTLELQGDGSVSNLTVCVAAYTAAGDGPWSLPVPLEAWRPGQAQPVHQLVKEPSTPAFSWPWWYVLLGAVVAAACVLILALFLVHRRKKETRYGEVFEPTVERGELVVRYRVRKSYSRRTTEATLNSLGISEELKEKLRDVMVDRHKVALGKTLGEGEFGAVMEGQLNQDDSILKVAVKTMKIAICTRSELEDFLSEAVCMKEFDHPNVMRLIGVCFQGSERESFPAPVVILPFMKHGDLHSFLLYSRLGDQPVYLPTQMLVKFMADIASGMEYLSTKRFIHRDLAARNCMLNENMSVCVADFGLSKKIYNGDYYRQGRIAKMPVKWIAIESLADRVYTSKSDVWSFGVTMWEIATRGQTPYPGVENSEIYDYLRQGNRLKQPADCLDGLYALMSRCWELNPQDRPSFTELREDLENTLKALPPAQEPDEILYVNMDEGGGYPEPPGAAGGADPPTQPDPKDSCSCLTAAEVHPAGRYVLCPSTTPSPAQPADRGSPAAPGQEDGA
T3 sequence (Q9HCP0 whole entry): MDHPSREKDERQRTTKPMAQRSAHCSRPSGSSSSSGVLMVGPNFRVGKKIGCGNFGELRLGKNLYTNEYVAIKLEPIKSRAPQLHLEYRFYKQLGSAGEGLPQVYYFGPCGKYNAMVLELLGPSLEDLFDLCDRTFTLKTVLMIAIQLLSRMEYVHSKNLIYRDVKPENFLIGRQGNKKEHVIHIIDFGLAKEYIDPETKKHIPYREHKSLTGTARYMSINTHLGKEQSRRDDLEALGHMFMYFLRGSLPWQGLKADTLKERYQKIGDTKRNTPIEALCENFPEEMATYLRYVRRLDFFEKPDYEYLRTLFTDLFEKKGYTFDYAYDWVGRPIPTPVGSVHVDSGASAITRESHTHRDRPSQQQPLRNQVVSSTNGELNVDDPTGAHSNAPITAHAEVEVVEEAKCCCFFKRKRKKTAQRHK
T6 sequence (P47809 2-397 limits assumed): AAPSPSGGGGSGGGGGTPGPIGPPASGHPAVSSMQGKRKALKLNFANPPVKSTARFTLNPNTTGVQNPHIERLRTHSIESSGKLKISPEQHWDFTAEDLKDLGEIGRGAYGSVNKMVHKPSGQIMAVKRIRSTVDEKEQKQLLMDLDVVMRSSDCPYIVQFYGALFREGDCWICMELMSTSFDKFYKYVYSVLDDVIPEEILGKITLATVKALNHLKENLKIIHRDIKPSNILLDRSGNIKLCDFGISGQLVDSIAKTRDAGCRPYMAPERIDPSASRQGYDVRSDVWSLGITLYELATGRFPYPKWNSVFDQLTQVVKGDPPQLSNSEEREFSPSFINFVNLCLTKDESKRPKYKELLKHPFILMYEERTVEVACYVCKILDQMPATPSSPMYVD
T4 sequence (P04049 whole entry, species assumed): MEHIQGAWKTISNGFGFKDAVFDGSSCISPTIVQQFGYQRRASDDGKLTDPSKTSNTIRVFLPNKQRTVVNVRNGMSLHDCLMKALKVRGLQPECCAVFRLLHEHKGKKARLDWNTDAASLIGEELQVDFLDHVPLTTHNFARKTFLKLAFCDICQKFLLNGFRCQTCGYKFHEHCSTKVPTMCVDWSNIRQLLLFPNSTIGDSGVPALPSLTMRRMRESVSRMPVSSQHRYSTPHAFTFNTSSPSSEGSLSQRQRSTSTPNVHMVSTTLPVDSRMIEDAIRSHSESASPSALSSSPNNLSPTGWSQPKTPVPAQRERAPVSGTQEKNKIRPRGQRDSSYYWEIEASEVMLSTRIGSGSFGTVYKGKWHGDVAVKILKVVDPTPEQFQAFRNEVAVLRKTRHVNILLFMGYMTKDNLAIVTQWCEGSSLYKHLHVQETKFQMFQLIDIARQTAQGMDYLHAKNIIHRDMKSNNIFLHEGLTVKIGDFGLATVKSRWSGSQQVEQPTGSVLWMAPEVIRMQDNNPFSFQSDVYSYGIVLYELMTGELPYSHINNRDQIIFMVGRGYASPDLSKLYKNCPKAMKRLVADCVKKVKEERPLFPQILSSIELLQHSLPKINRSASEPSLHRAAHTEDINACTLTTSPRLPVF
T5 sequence (P08581 25-1390): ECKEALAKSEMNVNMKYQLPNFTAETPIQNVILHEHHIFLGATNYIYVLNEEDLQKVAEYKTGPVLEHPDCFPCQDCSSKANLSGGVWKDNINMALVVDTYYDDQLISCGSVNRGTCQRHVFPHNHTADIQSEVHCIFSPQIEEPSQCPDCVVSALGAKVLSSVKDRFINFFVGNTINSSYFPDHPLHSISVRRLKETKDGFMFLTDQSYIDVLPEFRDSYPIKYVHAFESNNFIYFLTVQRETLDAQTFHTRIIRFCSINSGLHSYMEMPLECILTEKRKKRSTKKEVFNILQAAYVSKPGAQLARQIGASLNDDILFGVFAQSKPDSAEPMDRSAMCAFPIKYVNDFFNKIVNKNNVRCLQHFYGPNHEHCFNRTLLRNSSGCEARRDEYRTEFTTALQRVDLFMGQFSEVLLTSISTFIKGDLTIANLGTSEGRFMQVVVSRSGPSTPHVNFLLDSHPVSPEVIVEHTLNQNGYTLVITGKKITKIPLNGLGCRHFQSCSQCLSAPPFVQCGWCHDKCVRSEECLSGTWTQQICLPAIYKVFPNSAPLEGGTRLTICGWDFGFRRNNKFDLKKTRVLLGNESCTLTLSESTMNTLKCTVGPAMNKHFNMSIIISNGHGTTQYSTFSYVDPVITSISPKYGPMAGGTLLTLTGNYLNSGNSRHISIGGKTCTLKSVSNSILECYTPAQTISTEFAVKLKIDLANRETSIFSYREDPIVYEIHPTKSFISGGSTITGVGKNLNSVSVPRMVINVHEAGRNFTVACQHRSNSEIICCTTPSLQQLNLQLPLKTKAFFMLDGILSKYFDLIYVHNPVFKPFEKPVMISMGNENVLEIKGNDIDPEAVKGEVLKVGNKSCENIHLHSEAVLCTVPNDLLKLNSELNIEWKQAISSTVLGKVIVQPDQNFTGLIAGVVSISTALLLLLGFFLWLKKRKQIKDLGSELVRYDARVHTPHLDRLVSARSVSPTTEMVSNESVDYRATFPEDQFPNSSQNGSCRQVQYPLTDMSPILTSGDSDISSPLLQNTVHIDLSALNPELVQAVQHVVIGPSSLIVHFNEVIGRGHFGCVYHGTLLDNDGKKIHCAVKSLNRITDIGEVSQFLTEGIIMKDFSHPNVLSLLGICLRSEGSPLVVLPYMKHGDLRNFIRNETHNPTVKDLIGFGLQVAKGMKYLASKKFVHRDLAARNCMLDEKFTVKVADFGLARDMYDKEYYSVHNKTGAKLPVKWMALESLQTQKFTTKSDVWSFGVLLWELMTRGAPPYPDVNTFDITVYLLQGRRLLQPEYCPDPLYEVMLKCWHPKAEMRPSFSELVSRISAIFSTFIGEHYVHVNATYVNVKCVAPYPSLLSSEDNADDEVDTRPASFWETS
T7 sequence (O15530 whole entry): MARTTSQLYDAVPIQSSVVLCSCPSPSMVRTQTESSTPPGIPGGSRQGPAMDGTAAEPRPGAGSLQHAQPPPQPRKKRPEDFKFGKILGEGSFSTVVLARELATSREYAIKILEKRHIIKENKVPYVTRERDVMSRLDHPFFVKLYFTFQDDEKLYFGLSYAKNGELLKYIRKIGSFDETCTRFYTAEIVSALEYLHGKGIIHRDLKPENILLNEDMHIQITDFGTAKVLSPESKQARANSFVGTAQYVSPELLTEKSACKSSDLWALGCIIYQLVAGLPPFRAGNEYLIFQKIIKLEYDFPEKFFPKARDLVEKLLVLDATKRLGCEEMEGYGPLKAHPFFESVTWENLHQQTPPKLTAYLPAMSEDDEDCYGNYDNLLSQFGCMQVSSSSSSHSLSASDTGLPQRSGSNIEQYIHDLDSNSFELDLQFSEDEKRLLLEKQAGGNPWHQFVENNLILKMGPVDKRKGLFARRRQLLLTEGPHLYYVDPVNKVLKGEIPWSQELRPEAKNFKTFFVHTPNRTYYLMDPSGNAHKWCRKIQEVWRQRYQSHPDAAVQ
T2 sequence (Q14012 whole entry): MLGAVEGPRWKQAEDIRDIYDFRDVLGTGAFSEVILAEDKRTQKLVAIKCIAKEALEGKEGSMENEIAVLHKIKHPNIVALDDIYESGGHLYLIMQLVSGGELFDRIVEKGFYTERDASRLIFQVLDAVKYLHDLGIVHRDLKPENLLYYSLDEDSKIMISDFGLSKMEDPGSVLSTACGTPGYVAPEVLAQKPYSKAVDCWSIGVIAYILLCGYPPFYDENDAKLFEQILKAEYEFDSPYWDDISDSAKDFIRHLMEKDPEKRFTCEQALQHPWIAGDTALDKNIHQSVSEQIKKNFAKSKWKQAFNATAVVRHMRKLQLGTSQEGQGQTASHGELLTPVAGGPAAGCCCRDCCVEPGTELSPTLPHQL

Question: What does the source list for `CC(C)(C)c1ccc(S(=O)(=O)NCc2ccc(C(=O)Nc3cccnc3)cc2)cc1` [Example 38, 4-((4-tert-Butylphenylsulfonamido)methyl)-N-(pyridin-3-yl)benzamide]?
Answer: IC50 (RCC4; Homo sapiens, RCC4, 96 h, XTT assay, four days): < 1000 nM; number of RCC4 cells compared to RCC4/VHL (XTT metabolic activity) (RCC4; four days of treatment, concentration-dependent, FIG. 2A): significant decrease in the number of RCC4 cells; necrotic cell death in RCC4/VHL (RCC4/VHL): relatively insensitive; hexokinase activity in RCC4/VHL (hexokinase): unchanged; Axl kinase activity (Axl): 87; CaMKI kinase activity (CaMKI): 87; CK1γ1 kinase activity (CK1γ1): 85%; c-RAF kinase activity (c-RAF): 103; Met kinase activity (Met): 105; MKK4 kinase activity (MKK4): 128; PDK1 kinase activity (PDK1): 105%
